Laboratory results published in ChEMBL document CHEMBL3414515, “Design of a potent antibiotic peptide based on the active region of human defensin 5” (J Med Chem, 2015).
In brackets after ≈: the same amount, converted by molar mass. Activity calls are given as the source filed them. No cut-off for these calls is given here. Positions of bridges follow the written chain, without caps; N, C: chain ends. Residues, ends and D or L forms follow the SMILES beside them.

How the values were obtained:
Staphylococcus aureus [1] = assay: Antibacterial activity against Staphylococcus aureus ATCC 25923 assessed as reduction in bacterial survival rate; assay type: functional; settings: for LC50: Staphylococcus aureus, ATCC 25923, read-out: LD50 (the source's name)
Escherichia coli [2] = assay: Antibacterial activity against Escherichia coli ATCC 25922 assessed as reduction in bacterial survival rate; assay type: functional; settings: for LC50: Escherichia coli, ATCC 25922, read-out: LD50 (the source's name)
[3] = Induction of hemolysis in mouse erythrocytes up to 100 ug/ml incubated at 37 degC for 15 mins; assay type: cell-based, Erythrocyte; settings: read-out: Activity
[4] = Stability in presence of 400 U/L trypsin assessed as compound degradation at 100 ug/ml after 4 to 12 hrs by HPLC and LC-MS method; assay type: physicochemical; settings: isolated protein
Staphylococcus aureus [5] = assay: Antibacterial activity against Staphylococcus aureus ATCC 25923 assessed as reduction in bacterial survival rate at 25 ug/ml in presence of 10% mouse serum; assay type: functional, organism-based
[6] = Binding affinity to Rd mutant containing Escherichia coli F583 lipid A assessed as equilibrium dissociation constant in presence of 75 mM NaCl by bilayer interferometry
Escherichia coli [7] = assay: Antibacterial activity against Escherichia coli ATCC 25922 assessed as reduction in bacterial survival rate 12.5 ug/ml in presence of 150 mM NaCl; assay type: functional, organism-based
Escherichia coli [8] = assay: Antibacterial activity against Escherichia coli ATCC 25922 assessed as reduction in bacterial survival rate at 25 ug/ml in presence of 10% mouse serum; assay type: functional, organism-based
Escherichia coli [9] = assay: Antibacterial activity against Escherichia coli ATCC 25922 assessed as reduction in bacterial survival rate at 12.5 ug/ml in presence of >75 mM NaCl; assay type: functional, organism-based
[10] = Binding affinity to Rd mutant containing Escherichia coli F583 lipid A assessed as equilibrium dissociation constant by bilayer interferometry
Escherichia coli [11] = assay: Induction of inner membrane disintegration in Escherichia coli ML35 ATCC 43827 at 1.6 to 6.3 ug/ml by ONPG hydrolysis assay; assay type: functional, organism-based
Escherichia coli [12] = assay: Induction of outer membrane disintegration in Escherichia coli ATCC 25922 at 6.25 ug/ml by NPN uptake assay; assay type: functional, organism-based
[13] = Binding affinity to Staphylococcus aureus lipoteichoic acid assessed as equilibrium dissociation constant by bilayer interferometry
Escherichia coli [14] = assay: Induction of inner membrane disintegration in Escherichia coli ML35 ATCC 43827 at 0.78 to 1.6 ug/ml by ONPG hydrolysis assay; assay type: functional, organism-based
[15] = Induction of hemolysis in mouse erythrocytes at 12.5 and 25 ug/ml incubated at 37 degC for 15 mins; assay type: cell-based; settings: erythrocyte, 0.25 h

Row | Compound | LD90 (Staphylococcus aureus [1]) | LC50 (Staphylococcus aureus [1]) | LD90 (Escherichia coli [2]) | LC50 (Escherichia coli [2]) | hemolysis at 0.25 h [3] | Stability [4] | Activity (Staphylococcus aureus [5]) | Kd [6] | Activity (Escherichia coli [7]) | Activity (Escherichia coli [8]) | Activity (Escherichia coli [9]) | Kd [10] | Activity (Escherichia coli [11]) | Activity (Escherichia coli [12]) | Kd [13] | Activity (Escherichia coli [14]) | Activity [15]
1 | CC[C@H](C)[C@@H]1NC(=O)[C@H](CCC(=O)O)NC(=O)[C@@H]2CSSC[C@@H]3NC(=O)[C@H](Cc4ccc(O)cc4)NC(=O)[C@@H](NC(=O)[C@@H](NC(=O)[C@H](C)N)[C@@H](C)O)CSSC[C@@H](C(=O)N[C@@H](CCCNC(=N)N)C(=O)O)NC(=O)[C@H](CSSC[C@H](NC(=O)[C@H](CCCNC(=N)N)NC(=O)CNC(=O)[C@H](CCCNC(=N)N)NC(=O)[C@H](CCCNC(=N)N)NC3=O)C(=O)N[C@@H](C)C(=O)N[C@@H]([C@@H](C)O)C(=O)N[C@@H](CCCNC(=N)N)C(=O)N[C@@H](CCC(=O)O)C(=O)N[C@@H](CO)C(=O)N[C@@H](CC(C)C)C(=O)N[C@@H](CO)C(=O)NCC(=O)N[C@@H](C(C)C)C(=O)N2)NC(=O)[C@H](CC(C)C)NC(=O)[C@H](CCCNC(=N)N)NC(=O)[C@H](Cc2ccc(O)cc2)NC(=O)[C@H](CC(C)C)NC(=O)[C@H](CCCNC(=N)N)NC(=O)CNC(=O)[C@H](CO)NC1=O (H-ATCYCRRGRCATRESLSGVCEISGRLYRLCCR-OH; disulfide 3-31, 5-20, 10-30) | 2.8 µg/mL | 1.3 µg/mL (≈ 0.357 µM) | 5 µg/mL | 1.4 µg/mL (≈ 0.385 µM) |  |  |  |  |  |  |  |  |  |  |  |  | 
2 | CC[C@H](C)[C@@H]1NC(=O)[C@H](CCCNC(=N)N)NC(=O)[C@@H]2CSSC[C@@H]3NC(=O)[C@H](Cc4ccc(O)cc4)NC(=O)[C@@H](NC(=O)[C@@H](NC(=O)[C@H](C)N)[C@@H](C)O)CSSC[C@@H](C(=O)N[C@@H](CCCNC(=N)N)C(=O)O)NC(=O)[C@H](CSSC[C@H](NC(=O)[C@H](CCCNC(=N)N)NC(=O)CNC(=O)[C@H](CCCNC(=N)N)NC(=O)[C@H](CCCNC(=N)N)NC3=O)C(=O)N[C@@H](C)C(=O)N[C@@H]([C@@H](C)O)C(=O)N[C@@H](CCCNC(=N)N)C(=O)N[C@@H](CCC(=O)O)C(=O)N[C@@H](CO)C(=O)N[C@@H](CC(C)C)C(=O)N[C@@H](CO)C(=O)NCC(=O)N[C@@H](C(C)C)C(=O)N2)NC(=O)[C@H](CC(C)C)NC(=O)[C@H](CCCNC(=N)N)NC(=O)[C@H](Cc2ccc(O)cc2)NC(=O)[C@H](CC(C)C)NC(=O)[C@H](CCCNC(=N)N)NC(=O)CNC(=O)[C@H](CO)NC1=O (H-ATCYCRRGRCATRESLSGVCRISGRLYRLCCR-OH; disulfide 3-31, 5-20, 10-30) | 1.4 µg/mL | < 0.39 µg/mL | 1.8 µg/mL | 0.8 µg/mL (≈ 0.218 µM) | ≤ 1% | Stable | Active | 48 nM | Active | Active |  |  |  |  |  |  | 
3 | CC[C@H](C)[C@@H]1NC(=O)[C@H](CCC(=O)O)NC(=O)[C@@H]2CSSC[C@@H]3NC(=O)[C@H](Cc4ccc(O)cc4)NC(=O)[C@@H](NC(=O)[C@@H](NC(=O)[C@H](C)N)[C@@H](C)O)CSSC[C@@H](C(=O)N[C@@H](CCCNC(=N)N)C(=O)O)NC(=O)[C@H](CSSC[C@H](NC(=O)[C@H](CCCNC(=N)N)NC(=O)CNC(=O)[C@H]([C@@H](C)O)NC(=O)[C@H](CCCNC(=N)N)NC3=O)C(=O)N[C@@H](C)C(=O)N[C@@H]([C@@H](C)O)C(=O)N[C@@H](CCCNC(=N)N)C(=O)N[C@@H](CCC(=O)O)C(=O)N[C@@H](CO)C(=O)N[C@@H](CC(C)C)C(=O)N[C@@H](CO)C(=O)NCC(=O)N[C@@H](C(C)C)C(=O)N2)NC(=O)[C@H](CC(C)C)NC(=O)[C@H](CCCNC(=N)N)NC(=O)[C@H](Cc2ccc(O)cc2)NC(=O)[C@H](CC(C)C)NC(=O)[C@H](CCCNC(=N)N)NC(=O)CNC(=O)[C@H](CCCNC(=N)N)NC1=O (H-ATCYCRTGRCATRESLSGVCEIRGRLYRLCCR-OH; disulfide 3-31, 5-20, 10-30) | 3 µg/mL | 1.5 µg/mL (≈ 0.411 µM) | 6 µg/mL | 1.7 µg/mL (≈ 0.466 µM) |  |  |  |  |  |  |  |  |  |  |  |  | 
4 | CC[C@H](C)[C@@H]1NC(=O)[C@H](CCC(=O)O)NC(=O)[C@@H]2CSSC[C@@H]3NC(=O)[C@H](Cc4ccc(O)cc4)NC(=O)[C@@H](NC(=O)[C@@H](NC(=O)[C@H](C)N)[C@@H](C)O)CSSC[C@@H](C(=O)N[C@@H](CCCNC(=N)N)C(=O)O)NC(=O)[C@H](CSSC[C@H](NC(=O)[C@H](CCCNC(=N)N)NC(=O)CNC(=O)[C@H]([C@@H](C)O)NC(=O)[C@H](CCCNC(=N)N)NC3=O)C(=O)N[C@@H](C)C(=O)N[C@@H]([C@@H](C)O)C(=O)N[C@@H](CCCNC(=N)N)C(=O)N[C@@H](CCC(=O)O)C(=O)N[C@@H](CO)C(=O)N[C@@H](CC(C)C)C(=O)N[C@@H](CO)C(=O)NCC(=O)N[C@@H](C(C)C)C(=O)N2)NC(=O)[C@H](CC(C)C)NC(=O)[C@H](CCCNC(=N)N)NC(=O)[C@H](Cc2ccc(O)cc2)NC(=O)[C@H](CC(C)C)NC(=O)[C@H](CCCNC(=N)N)NC(=O)CNC(=O)[C@H](CO)NC1=O (H-ATCYCRTGRCATRESLSGVCEISGRLYRLCCR-OH; disulfide 3-31, 5-20, 10-30) | 3.4 µg/mL | 1.9 µg/mL (≈ 0.53 µM) | 6.6 µg/mL | 3.3 µg/mL (≈ 0.921 µM) |  |  | inactive | 210 nM |  | inactive | inactive | 120 nM | Active | Active | 220 nM |  | 
5 | CC[C@H](C)[C@@H]1NC(=O)[C@H](CCC(=O)O)NC(=O)[C@@H]2CSSC[C@@H]3NC(=O)[C@H](Cc4ccc(O)cc4)NC(=O)[C@@H](NC(=O)[C@@H](NC(=O)[C@H](C)N)[C@@H](C)O)CSSC[C@@H](C(=O)N[C@@H](CCCNC(=N)N)C(=O)O)NC(=O)[C@H](CSSC[C@H](NC(=O)[C@H](CCCNC(=N)N)NC(=O)CNC(=O)[C@H]([C@@H](C)O)NC(=O)[C@H](CCCNC(=N)N)NC3=O)C(=O)N[C@@H](C)C(=O)N[C@@H]([C@@H](C)O)C(=O)N[C@@H](CCCNC(=N)N)C(=O)N[C@@H](CCC(=O)O)C(=O)N[C@@H](CO)C(=O)N[C@@H](CC(C)C)C(=O)N[C@@H](CO)C(=O)NCC(=O)N[C@@H](C(C)C)C(=O)N2)NC(=O)[C@H](CC(C)C)NC(=O)[C@H](CCCNC(=N)N)NC(=O)[C@H](Cc2ccc(O)cc2)NC(=O)[C@H](CC(C)C)NC(=O)[C@H](CCCNC(=N)N)NC(=O)[C@H](CCCNC(=N)N)NC(=O)[C@H](CO)NC1=O (H-ATCYCRTGRCATRESLSGVCEISRRLYRLCCR-OH; disulfide 3-31, 5-20, 10-30) | 3.1 µg/mL | 1.5 µg/mL (≈ 0.407 µM) | 5.8 µg/mL | 1.6 µg/mL (≈ 0.435 µM) |  |  |  |  |  |  |  |  |  |  |  |  | 
6 | CC[C@H](C)[C@@H]1NC(=O)[C@H](CCCNC(=N)N)NC(=O)[C@@H]2CSSC[C@@H]3NC(=O)[C@H](Cc4ccc(O)cc4)NC(=O)[C@@H](NC(=O)[C@@H](NC(=O)[C@H](C)N)[C@@H](C)O)CSSC[C@@H](C(=O)N[C@@H](CCCNC(=N)N)C(=O)O)NC(=O)[C@H](CSSC[C@H](NC(=O)[C@H](CCCNC(=N)N)NC(=O)CNC(=O)[C@H]([C@@H](C)O)NC(=O)[C@H](CCCNC(=N)N)NC3=O)C(=O)N[C@@H](C)C(=O)N[C@@H]([C@@H](C)O)C(=O)N[C@@H](CCCNC(=N)N)C(=O)N[C@@H](CCC(=O)O)C(=O)N[C@@H](CO)C(=O)N[C@@H](CC(C)C)C(=O)N[C@@H](CO)C(=O)NCC(=O)N[C@@H](C(C)C)C(=O)N2)NC(=O)[C@H](CC(C)C)NC(=O)[C@H](CCCNC(=N)N)NC(=O)[C@H](Cc2ccc(O)cc2)NC(=O)[C@H](CC(C)C)NC(=O)[C@H](CCCNC(=N)N)NC(=O)CNC(=O)[C@H](CO)NC1=O (H-ATCYCRTGRCATRESLSGVCRISGRLYRLCCR-OH; disulfide 3-31, 5-20, 10-30) | 2.2 µg/mL | 0.6 µg/mL (≈ 0.166 µM) | 3.1 µg/mL | 1.3 µg/mL (≈ 0.36 µM) |  |  |  |  |  |  |  | 33 nM |  | Active | 85 nM | Active | 
7 | CC[C@H](C)[C@H](NC(=O)CN)C(=O)NCC(=O)N[C@@H](C)C(=O)N[C@H](C(=O)N[C@@H](CC(C)C)C(=O)N[C@@H](CCCCN)C(=O)N[C@H](C(=O)N[C@@H](CC(C)C)C(=O)N[C@H](C(=O)N[C@H](C(=O)NCC(=O)N[C@@H](CC(C)C)C(=O)N1CCC[C@H]1C(=O)N[C@@H](C)C(=O)N[C@@H](CC(C)C)C(=O)N[C@H](C(=O)N[C@@H](CO)C(=O)N[C@@H](Cc1c[nH]c2ccccc12)C(=O)N[C@H](C(=O)N[C@@H](CCCCN)C(=O)N[C@@H](CCCNC(=N)N)C(=O)N[C@@H](CCCCN)C(=O)N[C@@H](CCCNC(=N)N)C(=O)N[C@@H](CCC(N)=O)C(=O)N[C@@H](CCC(N)=O)C(N)=O)[C@@H](C)CC)[C@@H](C)CC)[C@@H](C)O)[C@@H](C)O)C(C)C)C(C)C [MELITTIN] |  |  |  |  |  |  |  |  |  |  |  |  |  |  |  |  | Toxic
